According to ChEMBL document CHEMBL4152193, “Phthalimide conjugations for the degradation of oncogenic PI3K” (Eur J Med Chem, 2018):
Blank lines part the entries; values can stand above or below the molecule they belong to. Active and inactive are the calls of the source. No cut-off for these calls is given here.

Legend:
[1] = target: Phosphatidylinositol 4,5-bisphosphate 3-kinase catalytic subunit alpha isoform (Homo sapiens, UniProt P42336); experiment: Inhibition of PI3Kalpha (unknown origin) using PIP2 as substrate after 1 hr by Kinase-Glo luminescent kinase assay
HepG2 [2] = experiment: Antiproliferative activity against human HepG2 cells at 1 to 50 uM after 48 hrs by MTT assay; format: functional, cell-based
[3] = target: T1, Protein cereblon-pI3K (Homo sapiens) (UniProt P42338+P48736+P42336+O00329+Q96SW2); experiment: Protac activity against PI3K/E3 ligase in human HepG2 cells assessed as reduction in Akt phosphorylation at Ser-473 residue in human HepG2 cells after 24 hrs by Western blot analysis; format: cell-based
[4] = target: T1, Protein cereblon-pI3K (Homo sapiens); experiment: Protac activity against PI3K/E3 ligase in human HepG2 cells assessed as reduction in phosphorylated S6K protein level in human HepG2 cells after 24 hrs by Western blot analysis; format: cell-based
[5] = target: T1, Protein cereblon-pI3K (Homo sapiens); experiment: Protac activity against PI3K/E3 ligase in human HepG2 cells assessed as reduction in phosphorylated GSK3beta protein level at 10 uM in human HepG2 cells by Western blot analysis; format: cell-based; details: TDE = time-dependent effect
[6] = target: T1, Protein cereblon-pI3K (Homo sapiens); experiment: Protac activity against PI3K/E3 ligase in human HepG2 cells assessed as reduction in cyclin D1 protein level at 10 uM in human HepG2 cells by Western blot analysis; format: cell-based; details: TDE = time-dependent effect
[7] = target: T1, Protein cereblon-pI3K (Homo sapiens); experiment: Protac activity against PI3K/E3 ligase in human HepG2 cells assessed as increase in conversion of LC3B-1 to LC3B-2 at 10 uM after 3 hrs in human HepG2 cells by Western blot analysis; format: cell-based
HepG2 [8] = experiment: Induction of apoptosis in human HepG2 cells assessed as necrotic cells at 5 uM after 24 hrs by Annexin V-FITC/propidium iodide staining-based flow cytometric analysis (reference value: 0.052%); format: functional
HepG2 [9] = experiment: Induction of apoptosis in human HepG2 cells assessed as late apoptotic cells at 5 uM after 24 hrs by Annexin V-FITC/propidium iodide staining-based flow cytometric analysis (reference value: 7.34%); format: functional
HepG2 [10] = experiment: Induction of apoptosis in human HepG2 cells assessed as early apoptotic cells at 5 uM after 24 hrs by Annexin V-FITC/propidium iodide staining-based flow cytometric analysis (reference value: 2.46%); format: functional
HepG2 [11] = experiment: Induction of apoptosis in human HepG2 cells assessed as viable cells at 5 uM after 24 hrs by Annexin V-FITC/propidium iodide staining-based flow cytometric analysis (reference value: 90.1%); format: functional; details: HepG2, 24 h, read-out: Activity
HepG2 [12] = experiment: Induction of apoptosis in human HepG2 cells assessed as necrotic cells at 10 uM after 24 hrs by Annexin V-FITC/propidium iodide staining-based flow cytometric analysis (reference value: 0.052%); format: functional
HepG2 [13] = experiment: Induction of apoptosis in human HepG2 cells assessed as late apoptotic cells at 10 uM after 24 hrs by Annexin V-FITC/propidium iodide staining-based flow cytometric analysis (reference value: 7.34%); format: functional
HepG2 [14] = experiment: Induction of apoptosis in human HepG2 cells assessed as early apoptotic cells at 10 uM after 24 hrs by Annexin V-FITC/propidium iodide staining-based flow cytometric analysis (reference value: 2.46%); format: functional
HepG2 [15] = experiment: Induction of apoptosis in human HepG2 cells assessed as viable cells at 10 uM after 24 hrs by Annexin V-FITC/propidium iodide staining-based flow cytometric analysis (reference value: 90.1%); format: functional; details: HepG2, 24 h, read-out: Activity
HepG2 [16] = experiment: Induction of apoptosis in human HepG2 cells assessed as necrotic cells at 25 uM after 24 hrs by Annexin V-FITC/propidium iodide staining-based flow cytometric analysis (reference value: 0.052%); format: functional
HepG2 [17] = experiment: Induction of apoptosis in human HepG2 cells assessed as late apoptotic cells at 25 uM after 24 hrs by Annexin V-FITC/propidium iodide staining-based flow cytometric analysis (reference value: 7.34%); format: functional
HepG2 [18] = experiment: Induction of apoptosis in human HepG2 cells assessed as early apoptotic cells at 25 uM after 24 hrs by Annexin V-FITC/propidium iodide staining-based flow cytometric analysis (reference value: 2.46%); format: functional
HepG2 [19] = experiment: Induction of apoptosis in human HepG2 cells assessed as viable cells at 25 uM after 24 hrs by Annexin V-FITC/propidium iodide staining-based flow cytometric analysis (reference value: 90.1%); format: functional; details: HepG2, 24 h, read-out: Activity
HepG2 [20] = experiment: Cell cycle arrest in human HepG2 cells assessed as accumulation at G0/G1 phase at 5 uM after 24 hrs by flow cytometric analysis (reference value: 86.6%); format: functional
HepG2 [21] = experiment: Cell cycle arrest in human HepG2 cells assessed as accumulation at S phase at 5 uM after 24 hrs by flow cytometric analysis (reference value: 3.77%); format: functional
HepG2 [22] = experiment: Cell cycle arrest in human HepG2 cells assessed as accumulation at G2/M phase at 5 uM after 24 hrs by flow cytometric analysis (reference value: 9.25%); format: functional
HepG2 [23] = experiment: Cell cycle arrest in human HepG2 cells assessed as accumulation at G0/G1 phase at 10 uM after 24 hrs by flow cytometric analysis (reference value: 86.6%); format: functional
HepG2 [24] = experiment: Cell cycle arrest in human HepG2 cells assessed as accumulation at S phase at 10 uM after 24 hrs by flow cytometric analysis (reference value: 3.77%); format: functional
HepG2 [25] = experiment: Cell cycle arrest in human HepG2 cells assessed as accumulation at G2/M phase at 10 uM after 24 hrs by flow cytometric analysis (reference value: 9.25%); format: functional
HepG2 [26] = experiment: Cell cycle arrest in human HepG2 cells assessed as accumulation at G0/G1 phase at 25 uM after 24 hrs by flow cytometric analysis (reference value: 86.6%); format: functional
HepG2 [27] = experiment: Cell cycle arrest in human HepG2 cells assessed as accumulation at S phase at 25 uM after 24 hrs by flow cytometric analysis (reference value: 3.77%); format: functional
HepG2 [28] = experiment: Cell cycle arrest in human HepG2 cells assessed as accumulation at G2/M phase at 25 uM after 24 hrs by flow cytometric analysis (reference value: 9.25%); format: functional
HepG2 [29] = experiment: Induction of autophagy in GFP-LC3 transfected human HepG2 cells assessed as increase in LC3 puncta at 10 uM after 6 hrs by DAPI staining-based fluorescence microscopy; format: functional, cell-based
HepG2 [30] = experiment: Antiproliferative activity against human HepG2 cells assessed as inhibition of cell proliferation at 10 uM after 48 hrs by MTT assay; format: functional; details: HepG2, 48 h
[31] = target: T1, Protein cereblon-pI3K (Homo sapiens); experiment: Protac activity against PI3K/E3 ligase in human HepG2 cells assessed as induction of p110alpha protein degradation at 10 uM in human HepG2 cells by Western blot analysis; format: cell-based

SMILES: O=C(CCC(=O)N1CCN(c2nc(N3CCOCC3)nc(-n3c(C(F)F)nc4ccccc43)n2)CC1)NCCCCCC(=O)Nc1cccc2c1C(=O)N(C1CCC(=O)NC1=O)C2=O (stereo unspecified)
IC50 [1]: 24 nM | Activity (HepG2 [2]): Dose-dependent effect | Activity [3]: Dose-dependent effect | Activity [4]: Dose-dependent effect | Activity [5]: Tde | Activity [6]: Tde | Activity [7]: Active | Activity (HepG2 [8]): 0.152% | Activity (HepG2 [9]): 17.9% | Activity (HepG2 [10]): 10.3% | viability at 5 µM (HepG2 [11]): 71.7% | Activity (HepG2 [12]): 0.4% | Activity (HepG2 [13]): 19.3% | Activity (HepG2 [14]): 14.7% | viability at 10 µM (HepG2 [15]): 65.6% | Activity (HepG2 [16]): 0.426% | Activity (HepG2 [17]): 20.4% | Activity (HepG2 [18]): 10.3% | viability at 25 µM (HepG2 [19]): 68.9% | Activity (HepG2 [20]): 85.6% | Activity (HepG2 [21]): 3.79% | Activity (HepG2 [22]): 9.99% | Activity (HepG2 [23]): 85.6% | Activity (HepG2 [24]): 3.49% | Activity (HepG2 [25]): 10.5% | Activity (HepG2 [26]): 81.3% | Activity (HepG2 [27]): 5.73% | Activity (HepG2 [28]): 12.9% | Activity (HepG2 [29]): Active | inhibition at 10 µM (HepG2 [30]): ≤ 50% | Activity [31]: < 50%

SMILES: O=C(CCC(=O)N1CCN(c2nc(N3CCOCC3)nc(-n3c(C(F)F)nc4ccccc43)n2)CC1)NCCCC(=O)Nc1cccc2c1C(=O)N(C1CCC(=O)NC1=O)C2=O (stereo unspecified)
IC50 [1]: 18 nM | Activity (HepG2 [2]): Dose-dependent effect | Activity [3]: Dose-dependent effect | Activity [4]: Dose-dependent effect | Activity [5]: Tde | Activity [6]: Tde | Activity [7]: Active | inhibition at 10 µM (HepG2 [30]): ≤ 50% | Activity [31]: < 50%

SMILES: O=C(CCC(=O)NCCCC(=O)Nc1cccc2c1C(=O)N(C1CCC(=O)NC1=O)C2=O)NCCCCCC(=O)N1CCN(c2nc(N3CCOCC3)nc(-n3c(C(F)F)nc4ccccc43)n2)CC1 (stereo unspecified)
IC50 [1]: 38 nM | Activity (HepG2 [2]): inactive

Further lines, with some results ahead:

IC50 [1]: 86 nM | Activity [3]: Dose-dependent effect | Activity [4]: Dose-dependent effect | Activity [5]: Tde | Activity [6]: Tde | Activity [7]: Active | Activity [31]: < 50%
SMILES: O=C1CCC(N2C(=O)c3cccc(NC(=O)CCCCCn4cc(CN5CCN(c6nc(N7CCOCC7)nc(-n7c(C(F)F)nc8ccccc87)n6)CC5)nn4)c3C2=O)C(=O)N1 (stereo unspecified)
Activity (HepG2 [2]): Dose-dependent effect | inhibition at 10 µM (HepG2 [30]): ≤ 50%

IC50 [1]: 2850 nM
SMILES: O=C1CCC(N2C(=O)c3cccc(NC(=O)CCCCCN4CCN(c5nc(N6CCOCC6)nc(-n6c(C(F)F)nc7ccccc76)n5)CC4)c3C2=O)C(=O)N1 (stereo unspecified)

IC50 [1]: 90 nM | Activity [3]: Dose-dependent effect | Activity [4]: Dose-dependent effect | Activity [5]: Tde | Activity [6]: Tde | Activity [7]: Active | Activity [31]: < 50%
SMILES: O=C1CCC(N2C(=O)c3cccc(NC(=O)CCCn4cc(CN5CCN(c6nc(N7CCOCC7)nc(-n7c(C(F)F)nc8ccccc87)n6)CC5)nn4)c3C2=O)C(=O)N1 (stereo unspecified)
Activity (HepG2 [2]): Dose-dependent effect | inhibition at 10 µM (HepG2 [30]): ≤ 50%
